Measured values: patent publication US6358883B1, “Pesticidal and parasiticidal use of 1-aryl-1-(substituted thio, sulfinyl and sulfonyl)-2-nitroethane compounds” (American Cyanamid Company, priority 1998, dated 2002)

What was measured:
Format in all cases: in vivo
[1] = test system: Tetranychus urticae (OP-resistant strain), 2-spotted spider mite (TSM); experiment: 2-spotted spider mite (TSM) plant dip test; parameters: key: 0 = no effect; 1 = 10-25% kill; 2 = 26-35% kill; 3 = 36-45% kill; 4 = 46-55% kill; 5 = 56-65% kill; 6 = 66-75% kill; 7 = 76-85% kill; 8 = 86-99% kill; 9 = 100% kill; conditions: mortality after 2 days
Method: (§1) Test solutions are prepared by dissolving the test compound in a 35% acetone in water mixture to give a concentration of 10,000 ppm. Subsequent dilutions are made with water as needed.
Tetranychus urticae (OP-resistant strain), 2-spotted Spider Mite (TSM)
Sieva lima bean plants with primary leaves expanded to 7-8 cm are selected and cut back to one plant per pot. A small piece is cut from an infested leaf taken from the main colony and placed on each leaf of the test plants. This is done about 2 hours before treatment to allow the mites to move over to the test plant to lay eggs. The size of the cut, infested leaf is varied to obtain about 100 mites per leaf. At the time of test treatment, the piece of leaf used to transfer the mites is removed and discarded. The newly-infested plants are dipped in the test solution for 3 seconds with agitation and set in the hood to dry. After 2 days, one leaf is removed and mortality counts are made.

[2] = test system: M. incognita (Root Knot Nematode) larvae; experiment: Evaluation of test compounds against M. incognita larvae in microtiter plate wells (movement score); conditions: larvae scored for movement after 20-24 hours; also: key: A score of '9' indicates inactive worms with a straight, sticklike morphology; A score of '8' indicates inactive worms with a limp, curled or curved morphology; A score of '7' indicates dead/paralyzed worms after 72 hours
Method: Evaluation of Test Compounds Against M. incognita (Root Knot Nematode)
Newly emerged M. incognita larvae are suspended in S Medium (buffered salt solution) to a concentration of 50-65 worms per 50 μl. 50 μl of the worm suspension are pipetted into microtiter plate wells containing the test compounds. The plates are then covered with plactic plate sealers to reduce loss of volume by evaporation. After 20-24 hours of incubation, the larvae are scored for movement. Wells containing obviously dead/paralyzed larvae are scored as positive. […] A score of “7” indicates dead/paralyzed worms after […].

[3] = test system: Spodoptera eridania, 2nd instar larvae, southern armyworm (SAW); experiment: Southern armyworm (SAW) leaf dip test; parameters: key: 0 = no effect; 1 = 10-25% kill; 2 = 26-35% kill; 3 = 36-45% kill; 4 = 46-55% kill; 5 = 56-65% kill; 6 = 66-75% kill; 7 = 76-85% kill; 8 = 86-99% kill; 9 = 100% kill
Method: as §1
Spodoptera eridania, 2nd Instar Larvae, Southern Armyworm (SAW)
A Sieva lima bean leaf expanded to 7-8 cm in length is dipped in the test solution with agitation for 3 seconds and allowed to dry in a hood. The leaf is then placed in a 100×10 mm petri dish containing a damp filter paper on the bottom and ten 2nd instar caterpillars. At 5 days, observations are made of mortality, reduced feeding, or any interference with normal molting.

[4] = test system: Diabrotica virgifera virgifera Leconte, 2nd instar western corn rootworm (WCR); experiment: Western corn rootworm (WCR) soil test; parameters: key: 0 = no effect; 1 = 10-25% kill; 2 = 26-35% kill; 3 = 36-45% kill; 4 = 46-55% kill; 5 = 56-65% kill; 6 = 66-75% kill; 7 = 76-85% kill; 8 = 86-99% kill; 9 = 100% kill
Method: Test solutions are prepared by dissolving the test compound in a 35% acetone in water mixture to give a concentration of 10,000 ppm. Subsequent dilutions are made with water as needed. Diabrotica virgifera virgifera Leconte, 2nd Instar Western Corn Rootworm (WCR) One cc of fine talc is placed in a 30 mL wide-mouth screw-top glass jar. One mL of the appropriate acetone test solution is pipetted onto the talc so as to provide 1.25 mg of active ingredient per jar. The jars are set under a gentle air flow until the acetone is evaporated. The dried talc is loosened, 1 cc of millet seed is added to serve as food for the insects and 25 mL of moist soil is added to each jar. The jar is capped and the contents thoroughly mixed mechanically. Following this, ten 2nd instar rootworms are added to each jar and the jars are loosely capped to allow air exchange for the larvae. The treatments are held for 5 days when mortality counts are made. Missing larvae are presumed dead, since they decompose rapidly and cannot be found. The concentrations of active ingredient used in this test correspond approximately to 50 kg/ha. [table]

[5] = test system: Aphis gossypii, cotton aphid (CA); experiment: Cotton aphid (CA) cotyledon dip test; parameters: key: 0 = no effect; 1 = 10-25% kill; 2 = 26-35% kill; 3 = 36-45% kill; 4 = 46-55% kill; 5 = 56-65% kill; 6 = 66-75% kill; 7 = 76-85% kill; 8 = 86-99% kill; 9 = 100% kill; conditions: mortality after 5 days
Method: Test solutions are prepared by dissolving the test compound in a 35% acetone in water mixture to give a concentration of 10,000 ppm. Subsequent dilutions are made with water as needed. Aphis gossypii, Cotton Aphid (CA) Cotton plants at the cotyledon stage are selected and cut back to one plant per pot. A heavily infested leaf is taken from the main colony and placed on top of each cotyledon. The aphids are allowed to transfer to the host plant overnight. At the time of test treatment, the leaf used to transfer the aphids is removed and discarded. The cotyledons are dipped in the test solution and allowed to dry. After 5 days, mortality counts are made. [table]

[6] = test system: C. elegans (Bristol strain); experiment: Evaluation of test compounds against C. elegans (motility, 96-well plate); parameters: key: 9=complete kill in 4 hours; 8=complete kill in 24 hours; 7=markedly reduced motility in approximately 95% of worms in 24 hours; 0=normal motility, same as controls; conditions: motility at 4 and 24 hours
Method: Evaluation of Test Compounds Against C. elegans Cultures of C. elegans (Bristol strain from J. Lewis) are maintained on E. coli lawns on NG Agar Plates at 20° C. New cultures are established weekly. Nematodes for testing are washed from cultures using Na buffer. Compounds are dissolved in 80% acetone. The test material is micropipetted (25 μl) into a single well of a 96-well sterile tissue culture plate and the solvent allowed to evaporate. A freshly prepared volume (50 μl) of C. elegans in Na buffer is micropipetted into each treated well and several control wells per plate. Plates are incubated at 20° C. Observations for efficacy are made under a dissecting microscope at 4 and 24 hours post-immersion. Immediately prior to reading the plate, it is gently tapped to stimulate the movement of the worms. Activity is judged subjectively, but semi-quantitatively, based on the drug effects on motility of the adults and larvae.

Row | SMILES | TSM (300 ppm) rating [1] | M. incognita (150 ppm) score [2] | SAW (300 ppm) rating [3] | WCR (50 ppm) rating [4] | CA (300 ppm) rating [5] | Rating Against C. elegans (150 ppm) [6]
1 | CCCCC(CC)COC(=O)CSC(C[N+](=O)[O-])c1ccc(Cl)cc1 (stereo not shown) [Example 74] | 0 | 0 | 0 | 0 | 0 | 0
2 | COC(=O)CSC(C[N+](=O)[O-])c1ccc(OC)cc1OC (stereo not shown) [Example 79] |  | 0 |  |  |  | 7
3 | COc1ccc(C(C[N+](=O)[O-])SCC(N)C(=O)O)c(OC)c1 (stereo not shown) [Example 84] |  | 0 |  |  |  | 9
4 | COc1ccc(C(C[N+](=O)[O-])SCC(=O)N2CCOCC2)c(OC)c1 (stereo not shown) [Example 80] |  | 0 |  |  |  | 7
5 | CCOC(=O)CSC(C[N+](=O)[O-])c1ccc(F)c(F)c1 (stereo not shown) [Example 153] | 0 |  | 0 | 0 | 0 | 
6 | NC(CSC(C[N+](=O)[O-])c1ccccc1)C(=O)O (stereo not shown) [Example 83] |  | 9 |  |  |  | 9
7 | O=[N+]([O-])CC(SCc1ccco1)c1ccccc1 (stereo not shown) [Example 156] | 0 |  | 0 | 0 | 0 | 
8 | O=[N+]([O-])CC(SCC(O)CO)c1ccccc1 (stereo not shown) [Example 85] |  | 9 |  |  |  | 7
9 | COC(=O)CSC(C[N+](=O)[O-])c1ccc(F)c(F)c1 (stereo not shown) [Example 152] | 0 |  | 0 | 7 (7 = 76-85% kill) | 0 | 
10 | O=[N+]([O-])CC(SCc1ccco1)c1ccc2c(c1)OCO2 (stereo not shown) [Example 159] | 0 |  | 0 | 0 | 0 | 
11 | CC(C)OC(=O)CSC(C[N+](=O)[O-])c1ccc(F)c(F)c1 (stereo not shown) [Example 155] | 3 (3 = 36-45% kill) |  | 0 | 0 | 0 | 
12 | COC(=O)CSC(c1ccccc1)C(C)[N+](=O)[O-] (stereo not shown) [Example 150] | 0 |  | 0 | 6 (6 = 66-75% kill) | 0 | 
13 | CC(C(SCC(=O)O)c1ccccc1)[N+](=O)[O-] (stereo not shown) [Example 161] | 0 |  | 0 | 4 (4 = 46-55% kill) | 0 | 
14 | CCCCOC(=O)CSC(c1ccccc1)C(C)[N+](=O)[O-] (stereo not shown) [Example 162] | 0 |  | 0 | 6 (6 = 66-75% kill) | 0 | 
15 | CCOC(=O)CSC(c1ccccc1)C(C)[N+](=O)[O-] (stereo not shown) [Example 151] | 0 |  | 0 | 0 | 0 | 
16 | COc1cc(OC)cc(C(C[N+](=O)[O-])SCC(O)CO)c1 (stereo not shown) [Example 87] |  | 0 |  |  |  | 0
17 | C=CCSC(C[N+](=O)[O-])c1ccc(Cl)cc1 (stereo not shown) [Example 77] | 3 (3 = 36-45% kill) | 0 | 0 | 0 |  | 0
18 | CCCOC(=O)CSC(C[N+](=O)[O-])c1ccc(F)c(F)c1 (stereo not shown) [Example 154] | 0 |  | 0 | 0 | 0 | 
19 | COc1ccc(C(C[N+](=O)[O-])SCc2ccccc2)c(OC)c1 (stereo not shown) [Example 81] |  | 0 |  |  |  | 7
20 | COC(=O)CSC(C[N+](=O)[O-])c1ccc(OC)c(OC)c1 (stereo not shown) [Example 86] |  | 0 |  |  |  | 0
